Here are results for 11 compounds from ChEMBL document CHEMBL1201862, “PubChem BioAssay data set” (2004).

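Method: 48-hour compound exposure of cells in 96-well plates, five concentrations, linear interpolation of endpoints. At the GI50, growth is halved.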 The source made the active and inactive calls. No stated cut-off is given here; in the data, active = GI50 up to about 1.1 µM and inactive = higher.

Some test systems named below: OVCAR-4; HCT-15; SNB-19; KM12; MDA-MB-231; ACHN; UACC-62; NCI-H522; CAKI-1; T47D; RXF 393; BT-549; RPMI-8226; TK-10; OVCAR-3; HOP-62; SK-MEL-28; HL-60; SK-MEL-5; NCI-H226.
Holding throughout (experiment): NCI anticancer screen, dose series, 48 h

As for `O=c1oc2ccc3ccccc3c2cc1-c1nnc(Nc2ccccc2)s1`, the GI50 was 20 µM (inactive) in the test on OVCAR-4; 51.6 µM in the test with HCT-15; 38.4 µM (inactive) in the test with SNB-19; 50.7 µM (inactive) with KM12; 18.2 µM (inactive) in the test on MDA-MB-231; 13.2 µM (inactive) with ACHN. Besides, the GI50 with UACC-62 is 23.8 µM (inactive); with NCI-H522, 0.986 µM (active); in the test on CAKI-1, 34 µM (inactive); with T47D, 77.1 µM (inactive); in the test on RXF 393, 15.8 µM (inactive); in the test on BT-549, 33.5 µM (inactive). The GI50 in the test with RPMI-8226 was 20.1 µM (inactive); in the test with TK-10, 16.9 µM (inactive); in the test with OVCAR-3 it was 17.4 µM (inactive).

Consider `CSc1nc(NC(C)C)c2c(n1)Sc1nc3ccccc3n1C2O` (stereo not drawn), for which the GI50 in the test with OVCAR-4 is 4.98 µM (inactive); with HCT-15 it was 4.1 µM; in the test on KM12, 3.01 µM (inactive); with MDA-MB-231, 9.14 µM (inactive); with ACHN, 7.93 µM (inactive); in the test with HOP-62, 6.37 µM (inactive). For the same compound, the GI50 with SK-MEL-28 was 3.34 µM (inactive); in the test on NCI-H522, 2.28 µM (inactive); in the test on CAKI-1 it was 82.4 µM (inactive); in the test on T47D, 4.2 µM (inactive); with RXF 393, 3.86 µM (inactive); with BT-549, 6.79 µM (inactive). The GI50 is 0.0432 µM (active) in the test with RPMI-8226, 14.3 µM (inactive) in the test on TK-10 and 2.51 µM (inactive) in the test with OVCAR-3.

Take `O=Cc1c2n(c3ccccc13)N[C@@](Cc1ccc(O)cc1)(C(=O)O)C2`: the GI50 with OVCAR-4 was 68.7 µM (inactive); with HCT-15, 47.3 µM; in the test on SNB-19, > 100 µM (inactive); in the test on KM12, > 100 µM (inactive); in the test with MDA-MB-231, > 100 µM (inactive); in the test on ACHN, 62.7 µM (inactive). The GI50 in the test on HOP-62 is 46.7 µM (inactive); with UACC-62, > 100 µM (inactive); with SK-MEL-28 it was > 100 µM (inactive); in the test on NCI-H522, 25.5 µM (inactive); with HL-60, 47.1 µM (inactive); in the test with CAKI-1, > 100 µM (inactive). Further, the GI50 with SK-MEL-5 was > 100 µM (inactive); in the test with T47D, 82.4 µM (inactive); in the test with BT-549, > 100 µM (inactive); in the test with NCI-H226 it was > 100 µM (inactive); with RPMI-8226, > 100 µM (inactive); in the test with TK-10, > 100 µM (inactive). Further, in the test with OVCAR-3, the GI50 was 19.5 µM (inactive).

Turning to `COC(=O)C1(C(=O)OC)N=C(C)OC1c1ccccn1` (stereo not drawn), the GI50 with OVCAR-4 was > 100 µM (inactive); in the test on HCT-15 it was > 100 µM; in the test with SNB-19, > 100 µM (inactive); with KM12 it was > 100 µM (inactive); with ACHN, > 100 µM (inactive); in the test with HOP-62, > 100 µM (inactive). Further, the GI50 in the test on UACC-62, in the test on SK-MEL-28, in the test with HL-60, in the test on CAKI-1, with SK-MEL-5 and in the test with T47D was > 100 µM (inactive) throughout. The GI50 with RXF 393, with BT-549, in the test with NCI-H226, in the test on RPMI-8226, in the test on TK-10 and in the test with OVCAR-3 was > 100 µM (inactive) in each case.

On to `CC(=O)N1C(C(=O)NN2CCOCC2)CSC1c1ccccc1` (stereo not drawn), for which the GI50 in the test on OVCAR-4 was > 100 µM (inactive); in the test with HCT-15 it was > 100 µM; in the test with SNB-19, > 100 µM (inactive); in the test on KM12 it was > 100 µM (inactive); in the test with MDA-MB-231, > 100 µM (inactive); in the test with ACHN, > 100 µM (inactive). In addition, the GI50 in the test on HOP-62, in the test on UACC-62, in the test on NCI-H522, in the test with CAKI-1, in the test with SK-MEL-5 and in the test with T47D was > 100 µM (inactive) in each case. Besides, the GI50 with BT-549, in the test with NCI-H226, in the test with RPMI-8226, in the test on TK-10 and in the test with OVCAR-3 was > 100 µM (inactive) throughout.

For the compound `CSC1=C(SC)SC(=C2SC3=C(SC(=C4SCCS4)S3)S2)S1`, the GI50 is > 100 µM (inactive) in the test with OVCAR-4; > 100 µM with HCT-15; > 100 µM (inactive) with SNB-19; > 100 µM (inactive) in the test on KM12; > 100 µM (inactive) in the test on MDA-MB-231; > 100 µM (inactive) in the test on ACHN. Moreover, the GI50 in the test with HOP-62, in the test on UACC-62, in the test with SK-MEL-28, in the test with NCI-H522, in the test on HL-60 and in the test with CAKI-1 was > 100 µM (inactive) throughout. Moreover, the GI50 in the test with SK-MEL-5, in the test on T47D, with BT-549, in the test with NCI-H226, in the test on RPMI-8226 and in the test with TK-10 was > 100 µM (inactive) each time. Also, the GI50 with OVCAR-3 is > 100 µM (inactive).

Take `CC1(C)OC(=O)C2(O1)C(=O)C1CCCCC12` (stereo not drawn): the GI50 was 9.73 µM (inactive) in the test on OVCAR-4; 86.9 µM with HCT-15; 8.39 µM (inactive) in the test with SNB-19; > 100 µM (inactive) in the test on KM12; 3.84 µM (inactive) in the test with MDA-MB-231; > 100 µM (inactive) in the test with ACHN. For the same compound, the GI50 in the test with HOP-62 was 62.8 µM (inactive); in the test with UACC-62 it was 82.4 µM (inactive); with SK-MEL-28 it was > 100 µM (inactive); with NCI-H522, 12 µM (inactive); with CAKI-1 it was 10.2 µM (inactive); with SK-MEL-5 it was > 100 µM (inactive). Besides, the GI50 is > 100 µM (inactive) in the test on T47D; 4.89 µM (inactive) in the test with RXF 393; 23.9 µM (inactive) in the test with BT-549; 45.4 µM (inactive) with NCI-H226; > 100 µM (inactive) with RPMI-8226; 70.5 µM (inactive) in the test with TK-10. In the test on OVCAR-3, the GI50 was > 100 µM (inactive).

In the case of `COc1cc2c(cc1O)-c1c(cnn1-c1ccc([N+](=O)[O-])cc1)CCC2`, the GI50 with OVCAR-4 was 19.1 µM (inactive); in the test with HCT-15, 14 µM; in the test with SNB-19, 27.7 µM (inactive); in the test on KM12, 12.6 µM (inactive); in the test with MDA-MB-231, 12 µM (inactive); in the test with ACHN, 1.82 µM (inactive). In addition, the GI50 was 21.9 µM (inactive) in the test on HOP-62; 1.79 µM (inactive) in the test on UACC-62; 20.4 µM (inactive) with SK-MEL-28; 11.6 µM (inactive) in the test with NCI-H522; 10.8 µM (inactive) with CAKI-1; 13.4 µM (inactive) in the test with SK-MEL-5. Further, the GI50 in the test with T47D is 19.8 µM (inactive); with RXF 393, 50.8 µM (inactive); in the test on BT-549, 21.6 µM (inactive); in the test on NCI-H226, 15.7 µM (inactive); in the test with RPMI-8226, 4.76 µM (inactive); in the test on TK-10 it was 8.83 µM (inactive). The GI50 with OVCAR-3 is 16.7 µM (inactive).

`CN(Cc1cnc2nc(N)nc(N)c2n1)c1ccc(C(=O)NC(CCC(=O)NC(CC(P(=O)(O)O)P(=O)(O)O)C(=O)O)C(=O)O)cc1` (stereo not drawn): the GI50 is > 100 µM (inactive) with OVCAR-4; > 100 µM in the test with HCT-15; > 100 µM (inactive) in the test on SNB-19; > 100 µM (inactive) with MDA-MB-231; > 100 µM (inactive) in the test with ACHN; > 100 µM (inactive) in the test on HOP-62. Besides, the GI50 in the test with UACC-62, in the test with SK-MEL-28, with NCI-H522, with SK-MEL-5, in the test with T47D and with RXF 393 was > 100 µM (inactive) each time. Further, the GI50 in the test with BT-549, in the test on NCI-H226, in the test on TK-10 and with OVCAR-3 was > 100 µM (inactive) in each case.

As for `O=S(=O)(O)c1ccc(NN(c2c(O)ccc3ccccc23)S(=O)(=O)O)cc1`, the GI50 in the test with OVCAR-4 is > 100 µM (inactive); in the test on HCT-15 it was > 100 µM; in the test with SNB-19 it was > 100 µM (inactive); in the test with KM12, > 100 µM (inactive); in the test on MDA-MB-231 it was > 100 µM (inactive); in the test on ACHN it was > 100 µM (inactive). The GI50 in the test with HOP-62, in the test on UACC-62, with SK-MEL-28, in the test on NCI-H522, in the test on HL-60 and in the test with CAKI-1 was > 100 µM (inactive) each time. Besides, the GI50 in the test on SK-MEL-5, in the test with T47D, in the test with BT-549, in the test with NCI-H226, with RPMI-8226 and with TK-10 was > 100 µM (inactive) each time. Further, the GI50 in the test with OVCAR-3 is > 100 µM (inactive).

In the case of `C=C1[C@@H]([C@@]2(C)C=CC(=O)C(C)(C)[C@@H]2CC(=O)OC)CC[C@@]2(C)[C@H](c3ccoc3)OC(=O)[C@H]3O[C@]132` [ANDIROBIN], the GI50 is > 100 µM (inactive) with OVCAR-4; > 100 µM in the test on HCT-15; > 100 µM (inactive) in the test with SNB-19; > 100 µM (inactive) in the test on KM12; > 100 µM (inactive) in the test with MDA-MB-231; > 100 µM (inactive) in the test on ACHN. For the same compound, the GI50 is 77.4 µM (inactive) with UACC-62; > 100 µM (inactive) in the test on SK-MEL-28; > 100 µM (inactive) with NCI-H522; 62.8 µM (inactive) in the test on HL-60; > 100 µM (inactive) in the test with CAKI-1; 68.2 µM (inactive) in the test on SK-MEL-5. The GI50 in the test on T47D was 94.4 µM (inactive); in the test on BT-549, > 100 µM (inactive); in the test with NCI-H226, > 100 µM (inactive); in the test with TK-10 it was > 100 µM (inactive); in the test on OVCAR-3, > 100 µM (inactive).
